Results published in patent publication US8507472B2 (priority 2010, dated 2013).
Where “and” joins values, the source holds several entries; their conditions need not be identical. Identical values can stand only once.

Key:
Puccinia triticina = Puccinia triticina test (wheat)/protective; assay type: in vivo; conditions: in vivo
Description: Solvent: 49 parts by weight of […]
(§1) Emulsifier: 1 part by weight of alkylaryl polyglycol ether
(§2) To produce a suitable preparation of active compound, 1 part by weight of active compound is mixed with the stated amounts of solvent and emulsifier, and the concentrate is diluted with water to the desired concentration.
(§3) To test for protective activity, young plants are sprayed with the active compound preparation at the stated application rate.
After the spray coating has dried on, the plants are sprayed with spores of a spore suspension of Puccinia triticina. The plants remain in an incubation cabin at 20° C. and 100% relative atmospheric humidity for 48 hours.
The plants are placed in greenhouse at a temperature of about 20° C. and a relative atmospheric humidity of about 80%.
Evaluation is carried out 8 days after the inoculation. 0% means an efficacy which corresponds to that of the control, whereas an efficacy of 100% means that no infection is observed.

Phytophthora infestans = assay type: in vivo; conditions: in vivo
[1] = tested on: Fusarium nivale (var. majus); assay: Fusarium nivale (var. majus) test (wheat)/protective; assay type: in vivo; conditions: 1000 ppm active compound, protective, evaluation 5 days after inoculation
Description: (§4) Solvent: 49 parts by weight of N,N-dimethylacetamide
as §1, §2, §3
After the spray coating has dried on, the plants are sprayed with spores of a spore suspension of Fusarium nivale (var. majus).
The plants are placed in a greenhouse chamber under a translucent incubation hood at 10° C. and 100% relative atmospheric humidity.
Evaluation is carried out 5 days after the inoculation. 0% means an efficacy which corresponds to that of the control, whereas an efficacy of 100% means that no infection is observed.

Sphaerotheca fuliginea = assay: Sphaerotheca test (cucumber)/protective; assay type: in vivo; conditions: in vivo
Summary of the method: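 Protective test: young cucumber plants sprayed with compound (DMF/alkylaryl polyglycol ether concentrate diluted in water) at the stated rate, inoculated with S. fuliginea spores 1 day later, then kept in greenhouse at 23 °C, 70% RH. Efficacy scored 7 days post-inoculation; 0% equals untreated control, 100% means no infection.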

Alternaria solani = assay: Alternaria test (tomato)/protective; assay type: in vivo; conditions: in vivo
Summary of the method: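 Young tomato plants were sprayed with compound (DMF/emulsifier formulation diluted in water) and inoculated with A. solani spores 1 day later. Plants were kept 24 h at 100% RH and 22 °C, then at 96% RH and 20 °C. Efficacy was scored 7 days post-inoculation, where 0% equals untreated control and 100% means no infection.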

Venturia inaequalis = assay: Venturia test (apple)/protective; assay type: in vivo; conditions: 100 ppm active compound, protective, evaluation 10 days after inoculation
Description: Solvents: 24.5 parts by weight of acetone • 24.5 parts by weight of dimethylacetamide Emulsifier: 1 part by weight of alkylaryl polyglycol ether
(§5) To produce a suitable preparation of active compound, 1 part by weight of active compound is mixed with the stated amounts of solvents and emulsifier, and the concentrate is diluted with water to the desired concentration.
(§6) To test for protective activity, young plants are sprayed with the active compound preparation at the stated application rate. After the spray coating has dried on, the plants are inoculated with an aqueous conidia suspension of the apple scab pathogen Venturia inaequalis and then remain in an incubation cabin at about 20° C. and 100% relative atmospheric humidity for 1 day.
(§7) The plants are then placed in a greenhouse at about 21° C. and a relative atmospheric humidity of about 90%.
(§8) Evaluation is carried out 10 days after the inoculation. 0% means an efficacy which corresponds to that of the control, whereas an efficacy of 100% means that no infection is observed.

Pyrenophora teres = Pyrenophora teres test (barley)/protective; assay type: in vivo; conditions: in vivo
Summary of the method: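 Protective test: young barley plants sprayed at the stated rate with compound in DMF/alkylaryl polyglycol ether diluted with water, inoculated with P. teres spores 1 day later, kept 48 h at 100% rel. humidity and 22° C., then greenhouse at 80% and 20° C. Efficacy scored 7-9 days post-inoculation (0% = control, 100% = no infection).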

Uromyces appendiculatus = assay: Uromyces test (bean)/protective; assay type: in vivo; conditions: in vivo
Description: (§9) Solvents: 24.5 parts by weight of acetone
(§10) • 24.5 parts by weight of dimethylacetamide Emulsifier: 1 part by weight of alkylaryl polyglycol ether
as §5
as §6, with “spore” for “conidia”, “bean rust” for “apple scab”, “Uromyces appendiculatus” for “Venturia inaequalis”
as §7, §8

Fusarium graminearum [2] = assay: microbe, parasite or virus in culture; assay type: cell-based; conditions: 50 μM
Septoria tritici = Septoria tritici test (wheat)/protective; assay type: in vivo; conditions: in vivo
Description: as §4, §1
To produce a suitable preparation of active compound, 1 part by weight of active compound is mixed with the stated amount of solvent and emulsifier, and the concentrate is diluted with water to the desired concentration.
To test for protective activity, young plants are sprayed with the active compound preparation at the stated application rate. After the spray coating has dried on, the plants are sprayed with a spore suspension of Septoria tritici. The plants remain in an incubation cabin at 20° C. and 100% relative atmospheric humidity for 48 hours. The plants are then placed under a translucent hood at 15° C. and 100% relative atmospheric humidity for a further 60 hours.
The plants are placed in a greenhouse at a temperature of about 15° C. and a relative atmospheric humidity of 80%.
Evaluation is carried out 21 days after the inoculation. 0% means an efficacy which corresponds to that of the control, whereas an efficacy of 100% means that no infection is observed.

DON/AcDON production = assay: microbe, parasite or virus in culture; assay type: cell-based, Fusarium graminearum; conditions: 7 days at 28° C.
Fusarium graminearum [3] = assay type: in vivo; conditions: in vivo
Botrytis cinerea = assay: Botrytis test (bean)/protective; assay type: in vivo; conditions: 100 ppm active compound, protective, evaluation 2 days after inoculation
Description: as §9, §10, §5
To test for protective activity, young plants are sprayed with the active compound preparation at the stated application rate. After the spray coating has dried on, 2 small pieces of agar colonized by Botrytis cinerea are placed onto each leaf. The inoculated plants are placed in a dark chamber at about 20° C. and 100% relative atmospheric humidity.
2 days after the inoculation, the size of the infected areas on the leaves is evaluated. 0% means an efficacy which corresponds to that of the control, whereas an efficacy of 100% means that no infection is observed.

Leptosphaeria nodorum = Leptosphaeria nodorum test (wheat)/protective; assay type: in vivo; conditions: in vivo
Summary of the method: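 Young wheat plants were sprayed protectively, then inoculated 1 day later with L. nodorum spores and held 48 h at 100% humidity and 22° C. They were then kept in a greenhouse at 90% humidity and 22° C. Efficacy was scored 7-9 days post-inoculation, where 0% equals control and 100% means no infection.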

| Structure (SMILES) | efficacy in % (Puccinia triticina) | efficacy in % (Phytophthora infestans) | efficacy in % [1] | efficacy in % (Sphaerotheca fuliginea) | efficacy in % (Alternaria solani) | efficacy in % (Venturia inaequalis) | efficacy in % (Pyrenophora teres) | efficacy in % (Uromyces appendiculatus) | % inhibition of the fungal growth of Fusarium graminearum at 50 μM (Fusarium graminearum [2]) | efficacy in % (Septoria tritici) | % inhibition of DON/AcDON at 50 μM (DON/AcDON production) | efficacy in % (Fusarium graminearum [3]) | efficacy in % (Botrytis cinerea) | efficacy in % (Leptosphaeria nodorum) |
| --- | --- | --- | --- | --- | --- | --- | --- | --- | --- | --- | --- | --- | --- | --- |
| CC(=O)Nc1cc(-c2c(-c3ccc(F)cc3)nn3c2CCCC3)ccn1 [Example 15] | 94% | 95% | 100% | 98% | 100% | 94% | 100% | 94% | 88% | 100% | 99% | 100% | 82% | 95% |
| COCC(=O)Nc1cc(-c2c(-c3ccc(F)cc3)nn3c2CCCC3)ccn1 [Example 22] | 75% | 90% | 86% | 90% | 95% | 76% | 95% | 94% | 97% | 86% | 100% | 100% | 89% | 80% |
| COCC(=O)Nc1cc(-c2c(-c3ccccc3)nn3c2CCCC3)ccn1 [Example 23] | 75% | 80% | 86% | 89% | 95% | 98% | 95% | 95% | 97% | 86% | 100% | 88% | 100% | 90% |
| CCC(=O)Nc1cc(-c2c(-c3ccccc3)nn3c2CCCC3)ccn1 [Example 8] | 100% | 95% | 100% | 99% | 100% | 96% | 100% | 100% | 100% | 100% | 99% | 88% | 99% | 95% |
| CCC(=O)Nc1cc(-c2c(-c3ccc(F)cc3)nn3c2CCC3)ccn1 [Example 40] | 100% | 70% | 100% | 94% | 100% | 94% | 95% | 81% and 75% |  | 90% |  | 100% | 100% | 95% |
| O=C(Nc1cc(-c2c(-c3ccsc3)nn3c2CCCC3)ccn1)C1CC1 [Example 65] | 86% | 90% | 100% | 100% | 100% | 96% | 95% | 95% | 100% | 90% | 100% | 83% | 97% | 94% |
| C[C@H](O)C(=O)Nc1cc(-c2c(-c3ccc(F)cc3)nn3c2CCCC3)ccn1 [Example 24] | 100% | 90% | 100% | 94% | 95% | 83% | 95% | 91% | 74% | 100% | 99% | 100% | 76% | 90% |
| CC(C)C(=O)Nc1cc(-c2c(-c3ccsc3)nn3c2CCCC3)ccn1 [Example 63] | 86% | 95% | 83% | 93% | 100% | 99% | 95% | 75% | 100% | 100% | 100% | 83% | 94% | 94% |
| O=C(Nc1cc(-c2c(-c3ccc(F)cc3)nn3c2CCCC3)ccn1)c1ccccc1 [Example 32] | 89% | 70% | 86% |  | 78% | 90% | 78% | 96% | 94% | 100% | 99% | 86% | 98% | 90% |
